No end group written: not given here.
Experiments:
Format in all cases: in vivo, mouse
C57/BL6 mice = assay: Induction of acute EAE by active immunization with MOG peptide 35-55; set-up: dose or concentration left out as unconfirmed; conditions: day 21, s.c. immunization with peptide in IFA, pertussis toxin, FIG. 1
acute EAE in B6 mice [1] = assay: Parenteral (injected) SIRS peptide 1-21 in acute EAE induced by MOG peptide 35-55; conditions: day −7 through day 14 post immunization, n=8/group; for inhibition of EAE compared to placebo: FIG. 2
EAE in B6 recipients = assay: Adoptive transfer of MOG-restimulated splenocytes from SIRS peptide-injected donors to B6 recipients; conditions: recipients of 10×10^6 MOG-activated splenocytes i.p. from donors injected with 10 mg day −7 through day +14, FIG. 3
Procedure: B6 mice effector donors were actively immunized with myelin oligodendrocyte glycoprotein peptide 35-55 described above (day 0) and injected (day −7 through day +14 post-immunization) with 0.1 ml of control saline (n=8) or 10 mg of soluble immune response suppressor peptide 1-21 (n=8). On day 14 post inoculation, splenocytes from both saline-injected (mock control) and soluble immune response suppressor peptide-injected (active treatment) immunized donor mice were re-stimulated in vitro with […] myelin oligodendrocyte glycoprotein peptide 35-55 at 20×10^6 splenocytes for >1 hour and then diluted to 2-4 million cells/ml and cultured for 48-72 hours in RPMi with 10% FCS and 1% Pen/Strep. Myelin oligodendrocyte glycoprotein-restimulated cells were washed, counted and passively transferred (10×10^6) i.p. into 8-10 week old female B6 recipients.
The control group reached a maximum disease score of 2.1.

acute EAE in B6 mice [2] = assay: Ingested (gavaged) SIRS peptide 1-21 in acute EAE induced by MOG peptide 35-55
SOCS-1 [3] = assay: Quantitative PCR of SOCS-1 transcripts in spleen and spinal cord of SIRS peptide-fed EAE mice; conditions: for SOCS-1 transcript level in CNS target tissue normalized to b-actin: spinal cord, day 23-26 post active immunization
From the text: (§1) Quantitative PCR can be performed for nominal EAE cytokine or transcript of interest. In particular, the mean measured transcript levels for IL-2/IFN-γ (Th1-like), IL-4/IL-10 (Th2-like) and other nominal biologic response modifiers of interest (e.g. TGF-β, IL-1, IL-6, IL-12, TNF-α) will be normalized to the b-actin control and expressed as % b-actin molecules.
(§2) Inflamed spinal cords from soluble immune response suppressor peptide-fed B6 mice (active treatment group) or from mock fed donor mice (control) were utilized for the experiments below. Intact spinal cord can be ejected by injecting saline into the distal end of the spinal canal and stored in RNALater (Ambion). The spinal cord is disrupted and the resulting cell suspension is filtered through a Falcon Cell Strainer 2350 (Becton Dickinson, San Jose, Calif.). Total RNA was processed on day 23-26 post active immunization, and relative numbers of transcripts for IFN-γ, IL-4, IL-10, SOCS-1, SOCS-2, and SOCS-3 were determined by quantitative PCR. The measured mean transcript levels were normalized to b-actin control (normalization mean=COI mean/b-actin×100) and expressed as % b-actin molecules.

SOCS-3 [4] = assay: Quantitative PCR of SOCS-3 transcripts in spleen and spinal cord of SIRS peptide-fed EAE mice; conditions: for SOCS-3 transcript level in CNS target tissue normalized to b-actin: spinal cord, day 23-26 post active immunization
From the text: as §1, §2

IL-4 = assay: Quantitative PCR of IL-4 transcripts in spleen and spinal cord of SIRS peptide-fed EAE mice; conditions: for IL-4 transcript level in CNS target tissue normalized to b-actin: spinal cord, day 23-26 post active immunization
From the text: as §1, §2

SOCS-2 = assay: Quantitative PCR of SOCS-2 transcripts in spleen and spinal cord of SIRS peptide-fed EAE mice
From the text: as §1, §2

IL-10 = assay: Quantitative PCR of IL-10 transcripts in spleen and spinal cord of SIRS peptide-fed EAE mice
From the text: as §1, §2

IFN-γ = assay: Quantitative PCR of IFN-γ transcripts in spleen and spinal cord of SIRS peptide-fed EAE mice
From the text: as §1, §2

[5] = system: diabetes mellitus in NOD mice; assay: Ingested SIRS peptide 1-21 in spontaneous diabetes of NOD mice; conditions: NOD female mice fed 100 μg daily from age ten weeks, FIG. 6 and FIG. 7
Procedure: NOD female mice (NOD MrkTacfBR) were obtained from Taconic Farms at eight weeks of age and feeding with mock (n=12) or 100 μg SIRS peptide 1-21 (n=6) in 0.1 ml DPBS daily was initiated at ten weeks. One hundred micrograms was used because this was an effective dose for inhibiting EAE (experimental autoimmune encephalomyelitis) in mice. The mice were maintained and fed under SPF conditions in microisolators, and handled under negative pressure sterile hoods. Surveillance mice were maintained with experimental mice and examined regularly for routine murine pathogens.
Mice were followed after initiation of feeding by weekly blood glucose determination (Life Scan One Touch II, Johnson & Johnson) beginning at week 18 thru 22. Animals were considered diabetic if two consecutive blood glucose determinations were above >11.1 mmol/l or >[…]. […]
Mock or SIRS peptide 1-21 was administered using a 2.5 cm syringe fitted with a 22-24 gauge ball point needle directly to the stomach and proximal small intestine (Thomas Scientific, Swedesboro, N.J.) daily to NOD mice beginning at age ten weeks. The peptide was directly delivered to the distal esophagus, stomach and proximal small intestine (as determined experimentally by injecting Evans blue during routine feeding and subsequent sacrifice). […]

SOCS-1 [6] = assay: Quantitative PCR of SOCS-1 transcripts in spleen and spinal cord of SIRS peptide-fed EAE mice; conditions: for Splenic SOCS-1 transcript level normalized to b-actin: spleen, day 23-26 post active immunization
SOCS-3 [7] = assay: Quantitative PCR of SOCS-3 transcripts in spleen and spinal cord of SIRS peptide-fed EAE mice; conditions: for Splenic SOCS-3 transcript level normalized to b-actin: spleen, day 23-26 post active immunization
[8] = CNS target organ (spinal cord) of peptide-fed mice
[9] = splenic samples, data not shown
[10] = splenic samples from peptide-fed mice

Sequence: MEVGWYRSPFSRVVHLYRNGK [Synthetic peptide 35-55 from myelin oligodendrocyte glycoprotein, used to induce EAE]
- mean clinical score (scale 0-6) (C57/BL6 mice): 3.44

Sequence: MTEENQQSSQPKTTINNAGDS
- inhibition of EAE compared to placebo (acute EAE in B6 mice [1]; 0.1 mg injected): no significant inhibition
- inhibition of EAE compared to placebo (acute EAE in B6 mice [1]; 1 mg injected): no significant inhibition
- inhibition of disease severity compared to placebo (acute EAE in B6 mice [1]; 10 mg injected (s.c.), FIG. 2, ρ<0.001): significant inhibition of disease severity
- clinical disease in recipients after passive transfer (EAE in B6 recipients): did not have any prolonged clinical disease
- delay in the onset of disease compared to placebo (acute EAE in B6 mice [2]; 0.1 mg gavaged, FIG. 4): prolonged delay in the onset of disease
- inhibition of EAE disease severity compared to placebo (acute EAE in B6 mice [2]; 0.1 mg gavaged, day −7 through day 14, n=4/group, FIG. 4): significant inhibition of disease severity
- inhibition of EAE disease severity compared to placebo (acute EAE in B6 mice [2]; 0.1 mg gavaged, day −7 through day 14, n=4/group, FIG. 4, listed as soluble immune response suppressor peptide): significant inhibition
- inhibition of EAE compared to placebo (acute EAE in B6 mice [2]; 0.1 mg gavaged, repeat experiment, n=4/group, FIG. 5): no significant inhibition
- inhibition of EAE compared to placebo (acute EAE in B6 mice [2]; 1 mg gavaged, day −7 through day 14, n=4/group, FIG. 4): significant inhibition
- delay in the onset of disease compared to placebo (acute EAE in B6 mice [2]; 1 mg gavaged, repeat experiment, FIG. 5): prolonged delay in the onset of disease
- inhibition of disease severity compared to placebo (acute EAE in B6 mice [2]; 1 mg gavaged, repeat experiment, FIG. 5, p<0.038 Mann-Whitney): significant inhibition of disease severity
- delay in the onset of disease compared to placebo (acute EAE in B6 mice [2]; 10 mg gavaged, FIG. 4): prolonged delay in the onset of disease
- inhibition of disease severity compared to placebo (acute EAE in B6 mice [2]; 10 mg gavaged, day −7 through day 14, n=4/group, FIG. 4): significant inhibition of disease severity
- delay in the onset of disease compared to placebo (acute EAE in B6 mice [2]; 100 mg gavaged, FIG. 4): prolonged delay in the onset of disease
- inhibition of disease severity compared to placebo (acute EAE in B6 mice [2]; 100 mg gavaged, day −7 through day 14, n=4/group, FIG. 4): significant inhibition of disease severity
- delay in the onset of disease compared to placebo (acute EAE in B6 mice [2]; 100 mg gavaged, repeat experiment, FIG. 5): prolonged delay in the onset of disease
- inhibition of disease severity compared to placebo (acute EAE in B6 mice [2]; 100 mg gavaged, repeat experiment, FIG. 5, p<0.001): significant inhibition of disease severity
- increase in SOCS-1 expression (SOCS-1 [3]; [8]): 75-175 % of control
- SOCS-1 transcript level in CNS target tissue normalized to b-actin (SOCS-1 [3]; fed 0.1 mg): 0.14 % b-actin molecules
- SOCS-1 transcript level in CNS target tissue normalized to b-actin (SOCS-1 [3]; fed 1 mg): 0.19 % b-actin molecules
- SOCS-1 transcript level in CNS target tissue normalized to b-actin (SOCS-1 [3]; fed 10 mg): 0.22 % b-actin molecules
- SOCS-1 transcript level in CNS target tissue normalized to b-actin (SOCS-1 [3]; fed 100 mg): 0.14 % b-actin molecules
- decrease in SOCS-3 (SOCS-3 [4]; [8]): 45%
- SOCS-3 transcript level in CNS target tissue normalized to b-actin (SOCS-3 [4]; fed 0.1 mg): 0.45 % b-actin molecules
- SOCS-3 transcript level in CNS target tissue normalized to b-actin (SOCS-3 [4]; fed 1 mg): 0.54 % b-actin molecules
- SOCS-3 transcript level in CNS target tissue normalized to b-actin (SOCS-3 [4]; fed 10 mg): 0.28 % b-actin molecules
- SOCS-3 transcript level in CNS target tissue normalized to b-actin (SOCS-3 [4]; fed 100 mg): 0.22 % b-actin molecules
- decrease in IL-4 expression (IL-4; [8]): up to 80%
- IL-4 transcript level in CNS target tissue normalized to b-actin (IL-4; fed 0.1 mg): 0.04 % b-actin molecules
- IL-4 transcript level in CNS target tissue normalized to b-actin (IL-4; fed 1 mg): 0.15 % b-actin molecules
- IL-4 transcript level in CNS target tissue normalized to b-actin (IL-4; fed 10 mg): 0.05 % b-actin molecules
- IL-4 transcript level in CNS target tissue normalized to b-actin (IL-4; fed 100 mg): 0.02 % b-actin molecules
- difference in IL-4 compared to control (IL-4; [9]): no significant difference
- difference in SOCS-2 compared to control (SOCS-2; cord samples): no significant differences
- difference in SOCS-2 compared to control (SOCS-2; [9]): no significant difference
- difference in IL-10 compared to control (IL-10; cord samples): no significant differences
- difference in IL-10 compared to control (IL-10; [9]): no significant difference
- difference in IFN-γ compared to control (IFN-γ; cord samples): no significant differences
- difference in IFN-γ compared to control (IFN-γ; [9]): no significant difference
- frequency of mice becoming diabetic compared to mock treated mice [5]: decreased frequency of mice becoming diabetic
- onset of T1DM compared to mock treated mice [5]: significantly delayed onset of T1DM
- Splenic SOCS-1 transcript level normalized to b-actin (SOCS-1 [6]; fed 0.1 mg): 0.28 % b-actin molecules
- Splenic SOCS-1 transcript level normalized to b-actin (SOCS-1 [6]; fed 1 mg): 0.30 % b-actin molecules
- Splenic SOCS-1 transcript level normalized to b-actin (SOCS-1 [6]; fed 10 mg): 0.23 % b-actin molecules
- Splenic SOCS-1 transcript level normalized to b-actin (SOCS-1 [6]; fed 100 mg): 0.23 % b-actin molecules
- decrease in SOCS-1 compared to control (SOCS-1 [6]; [10]): up to 30%
- Splenic SOCS-3 transcript level normalized to b-actin (SOCS-3 [7]; fed 0.1 mg): 0.38 % b-actin molecules
- Splenic SOCS-3 transcript level normalized to b-actin (SOCS-3 [7]; fed 1 mg): 0.28 % b-actin molecules
- Splenic SOCS-3 transcript level normalized to b-actin (SOCS-3 [7]; fed 10 mg): 0.21 % b-actin molecules
- Splenic SOCS-3 transcript level normalized to b-actin (SOCS-3 [7]; fed 100 mg): 0.18 % b-actin molecules
- decrease in SOCS-3 compared to control (SOCS-3 [7]; [10]): 60%

— patent US9175058B2, “Soluble immune response suppressor polypeptides and treatment of multiple sclerosis and other autoimmune diseases” (THE BOARD OF REGENTS OF THE UNIVERSITY OF TEXAS SYSTEM, priority 2004, dated 2015)
